Legend:
[1] = test system: viable and non-viable E. coli; assay: Viability staining of mixed viable/non-viable E. coli in solution: fluorescent probe and two PET quenchers; type: cell-based; conditions: 0.005 mM Oxazine 170 perchlorate, 0.4 mM p-Sulfonic calix[6]arene, 100 mM sodium ascorbate in PBS; about 5 min
Procedure: The viable and heat killed E. coli were preparations were prepared as described in Example 1. The heat killed E. coli suspension was then combined with the viable cell suspension and mixed by vortexing. The resulting cell suspension served as the viable and non-viable E. coli solution. A fluorescent probe-quencher stain was prepared as a solution consisting of 0.005 mM Oxazine 170 perchlorate (Sigma-Aldrich, St. Louis, Mo.), 0.4 mM p-Sulfonic calix[6]arene (TCI America, Portland, Oreg.), 100 mM Sodium ascorbate (Sigma-Aldrich, St. Louis, Mo.) in PBS. The viable and non-viable E. coli suspension was then diluted 1:1000 into the fluorescent probe-quencher solution to stain the cells. After incubation for approximately 5 minutes, a droplet of the stained cell solution was placed onto a microscope slide and imaged on a fluorescent microscope (Carl Zeiss, LLC, Thornwood, N.Y.). FIGS. 20A and 20B show a combined image of the viable and non-viable stained E. coli captured under phase contrast (FIG. 20A) as well as fluorescent conditions (excitation 575-625 nm, emission 660-710 nm) (FIG. 20B). The viable and non-viable cells were indistinguishable in phase contrast but under fluorescent conditions the viable cells were brightly fluorescent whereas the non viable cells were not.

[2] = test system: viable and heat killed E. coli; assay: Viability staining of E. coli captured on a membrane: fluorescent probe and quencher wash, fluorescence microscopy; type: cell-based; conditions: 0.005 mM Oxazine 170 perchlorate stain, then 10 mM sodium ascorbate wash
Procedure: Viable and non-viable E. coli cell fractions were prepared by picking a colony cultured on a conventional media plate and then transferring the cells into Phosphate Buffered Saline (PBS). The cells then were suspended by vortexing and then were further diluted in PBS to give a turbidity equivalent to a 1.0 McFarland standard. This stock solution served as the live cell fraction. An aliquot of the live cell fraction was transferred to a glass tube that was placed into a boiling water bath for about 15 minutes to heat kill the E. coli. The tube was removed from the bath and allowed to cool to room temperature. This heat killed suspension served as the dead cell fraction. A fluorescent stain solution was prepared as a 0.005 mM solution of Oxazine 170 perchlorate (Sigma-Aldrich, St. Louis, Mo.) in PBS containing a 1:100,000 dilution of 10% w/v 0.8 μm Sky Blue latex fluorescent particles (Spherotech, Lake Forest, Ill.). A separate quencher wash solution was prepared as a 10 mM Sodium ascorbate (Sigma-Aldrich, St. Louis, Mo.) solution in PBS. […] The cells then were imaged using a fluorescent microscope (Carl Zeiss, LLC—Thornwood, N.Y.) with an excitation of 575 nm-625 nm and measured emission of 660 nm-710 nm. […]

| SMILES | Permeation of the quencher through non-viable cell membranes and quenching of fluorescence [1] | Permeation of the quencher into heat killed cells (quenching of fluorescent signal) ([2]; heat killed E. coli on 0.2 μm membrane) | Permeation of the quencher into viable cells ([2]; live E. coli on 0.2 μm membrane, ex 575-625 nm, em 660-710 nm) |
| --- | --- | --- | --- |
| O=S(=O)(O)c1cc2c(O)c(c1)Cc1cc(S(=O)(=O)O)cc(c1O)Cc1cc(S(=O)(=O)O)cc(c1O)Cc1cc(S(=O)(=O)O)cc(c1O)Cc1cc(S(=O)(=O)O)cc(c1O)Cc1cc(S(=O)(=O)O)cc(c1O)C2 [p-Sulfonic calix[6]arene, 4- Sulfocalix [6]arene] | permeated the non-viable cell membranes resulting in an effective quenching of fluorescence | – | – |
| O=C1O[C@H]([C@@H](O)CO)C([O-])=C1O.[Na+] [sodium ascorbate, Sodium Ascorbate] | permeated the non-viable cell membranes resulting in an effective quenching of fluorescence | permeated | excluded from the viable cells |

Reference: patent US8993260B2, “Fluorescence-based viability staining method using a membrane permeable flourescent dye and membrane impermeable fluorescence quencher” (Charles River Laboratories, Inc., priority 2012, dated 2015)
